Experimental data: US20210379100A1, “USE OF FUNCTIONALIZED CALCIUM CARBONATE AS ACTIVE INGREDIENT” (OMYA INTERNATIONAL AG, priority 2018, published 2021)

Test: Particle size distribution (Malvern Mastersizer 3000 laser diffraction / Sedigraph sedimentation)
Assay type: physicochemical
Source text: The “particle size” of all particulate materials disclosed herein, with the exception of ground calcium carbonate and precipitated calcium carbonate, is described as volume-based particle size distribution dx(vol). Therein, the value dx(vol) represents the diameter relative to which x % by volume of the particles have diameters less than dx(vol). This means that, for example, the d20(vol) value is the particle size at which 20 vol % of all particles are smaller than that particle size. The d50(vol) value is thus the volume median particle size, i.e. 50 vol % of all particles are smaller than that particle size and the d98(vol) value, referred to as volume-based top cut, is the particle size at which 98 vol % of all particles are smaller than that particle size. […]
All particle sizes described herein, with the exception of the particle sizes of the ground calcium carbonate that was used for the production of the functionalized calcium carbonate and that of precipitated calcium carbonate, refer to the volume-based particle size distribution dx(vol). The volume-based median particle size d50(vol) and top cut d98(vol) are evaluated using a Malvern Mastersizer 3000 Laser Diffraction System (Malvern Instruments Plc., Great Britain). The raw data obtained by the measurement is analyzed using the Fraunhofer theory. […]

## O.O.O.O.O=C([O-])CC(O)(CC(=O)[O-])C(=O)[O-].O=C([O-])CC(O)(CC(=O)[O-])C(=O)[O-].[Ca+2].[Ca+2].[Ca+2] [Calcium citrate tetrahydrate]
Median particle size
  d50: 6.83 μm
Top cut particle size
  d98: 80 μm
